Where two headings read alike, the source gives them in different places.
Legend:
sepsis = conditions: cited from earlier work
[1] = test system: dextran-induced paw edema; assay: dextran-induced rat paw edema; format: in vivo
From the text: Therefore, it was expected that such a mechanism might also come into play at the central nervous system level.

[2] = rats, cited from earlier work
[3] = cited from earlier work
[4] = cited from earlier work; remark: listed apart in the source
[5] = test system: ischemia (occlusion of both carotid arteries); assay: rat ischemia model, reversible 30 minute occlusion of both carotid arteries followed by reperfusion; format: in vivo; conditions: 450 mg/kg i.p. 30 minutes before the occlusion
focal cerebral ischemia = conditions: cited from earlier work
[6] = test system: arachidonic acid-induced brain inflammation; assay: brain inflammation induced by arachidonic acid in the subarachnoid space (CSF volume and WBC count in CSF); format: in vivo, rat
Description: Male rats, approximately 350–400 g, were anesthetized with sodium pentobarbital at a dose of 50 mg/kg intraperitoneally (i.p.). Animals were then placed in a stereotaxic unit. Fur from the top of the head to neck was shaved. The study area was disinfected with 70% ethanol followed by a 10% providone-iodine solution. Skin and muscle over the cervical cord were dissected until cervical vertebrae were exposed. A hole was made using a 23G3/4 needle passing through the dura via the cisterna magna. One end of a 2–3 mm PE10 cannula (0.011 “I.D., 0.007” thick, 0.024” O.D., 6.5 cm long) was inserted into the subarachnoid space at the cervical cord so as to avoid damage to neuronal tissue (FIG. 3). The cannula was fixed with cyanoacrylic glue to the peripheral tissue. […] The cannula filled with CSF immediately after the cannulation. Air was infused to inject AA to the subarachnoid space. The muscles and skin were closed with surgical staples. The rat was then removed from the stereotaxic unit and placed on a heat pad and continuously monitored. […] If the effects of the anesthesia appeared to be wearing off, an additional 0.05–0.1 ml pentobarbital (50 mg/ml, i.p.) dose was administered. If at any time during the experiment, the animal appeared to be in pain or distress, the study was immediately stopped and the animal was euthanized. In the present study, the volume (μl) of cerebrospinal fluid (CSF) and white blood cell (WBC) counts in CSF was measured every thirty minutes for 11 hours from the same rat. One side of the cannula (PE10) was inserted into the subarachnoid space under pentobarbital anesthesia, avoiding neuronal damage (FIG. 3). If the brain tissue is damaged, the volume of CSF and WBC increases immediately without the administration of arachidonic acid. Since there are no WBC in the CSF in the normal rat, only rats that had no WBC in the CSF immediately after the cannulation were used. Another side of the cannula remained open and was used for the administration of nociceptive stimuli (arachidonic acid, LPS, dextran, etc.) and subsequently for collecting the CSF every thirty minutes during the experiment. The CSF volume was measured using a micropipette and WBC in the CSF were counted by means of a hemacytometer.

[7] = mice, cited from earlier work
[8] = test system: interleukin-6 induced leukocyte in CSF; assay: interleukin-6 induced white blood cell infiltration into CSF (sepsis model); format: in vivo, dog; conditions: 300, 500, 1000 mg/kg p.o. 30 minutes before interleukin-6; for three days
From the text: TNF-α, interleukin-1 and interleukin-6 produced by activated macrophages at the site of the nociceptive stimuli play a particularly important role in mediating acute-phase inflammation as well as sepsis. In fact, proinflammatory cytokines administered to the outside of the blood brain barrier through the chronically in-dwelling intracerebroventricular catheter attached to an Ommaya reservoir increase white blood cell count (characterized by neutrophilic response and lymphocyte respectively) in the cerebrospinal fluid in dogs. The inflammation induced by interleukin-6, was longer lasting (starting from 2 hours, peak time are 10–24 hours lasting 24–72 hours) than that induced by interleukin-1β and TNF-α. In the present studies presented in the Examples hereinbelow, the inflammation caused by interleukin-6 was used as a sepsis model, measuring the amount of infiltrating white blood cells in the cerebrospinal fluid.

C[C@]12CCC(=O)C=C1CC[C@@H]1[C@@H]2[C@@H](O)C[C@@]2(C)[C@H]1CC[C@]2(O)C(=O)CO [Hydrocortisone]
Effect (sepsis; large dose (100 mg i.v. then 0.18/kg/hr)): none or worse | Effect (sepsis; small dose (100 mg i.v./every 8 hours)): effective

O=C(Nc1cccc2c(=O)cc(-c3nnn[nH]3)oc12)c1ccc(OCCCCc2ccccc2)cc1 [pranlukast]
inhibition of dextran-induced paw edema ([1]; 450 mg/kg, administered intraperitoneally): completely inhibited | inhibition of dextran-caused paw edema ([1]; 450 mg/kg, administered orally (FIG. 2)): completely inhibited | dose dependence of inhibition of dextran-induced paw edema ([1]; rat, in vivo): dose-dependent fashion | LD50 ([2]; p.o.): > 2000 mg/kg | LD50 ([2]; s.c.): > 2000 mg/kg | behavior, changes in body weight and food intake compared with control group ([3]; single 30-1000 mg/kg p.o. and repeated 30-1000 mg/kg/day p.o. for three and six months): normal | urine examination and histopathological examinations ([3]; single and repeated administration): normal | time the maximum blood concentration was maintained ([4]; 20 mg/kg p.o.): at least 5 hours | time to maximum blood concentration ([4]; 20 mg/kg p.o.): within one hour | pranlukast in blood 24 hours after administration ([4]; low doses (20 mg/kg p.o.)): no pranlukast was observed | survival [5]: One of 4–5 rats survived for one week | effect on death of brain cells (focal cerebral ischemia; 0.003-1.0 mg/kg i.p. 30 minutes before MCA occlusion and 2 hours after reperfusion, evaluated 24 hours after reperfusion): inhibited the death of brain cells | most effective dose (focal cerebral ischemia; Zhang et al (2002)): 0.1 mg/kg | effect on brain inflammation caused by a large dose of arachidonic acid ([6]; arachidonic acid 6.25 μg/2.0 μl, pranlukast 450 mg/kg p.o.): not inhibited by pranlukast (450 mg/kg; p.o.) but was attenuated | time until white blood cell count returned to normal (=zero) after arachidonic acid ([6]; arachidonic acid 6.25 μg/2.0 μl, pranlukast 450 mg/kg p.o., 5 days without pranlukast): 36 h | inhibition of the increase of CSF volume ([6]; pranlukast 450 mg/kg i.p. thirty minutes before arachidonic acid 3.25 μg/2 μl, n=4): completely inhibited | inhibition of inflammation caused by arachidonic acid ([6]; pranlukast 450 mg/kg i.p., arachidonic acid 3.25 μg/2 μl): completely inhibits | LD50 ([7]; p.o.): > 2000 mg/kg | LD50 ([7]; s.c.): > 2000 mg/kg | inhibition of interleukin-6 induced leukocyte in CSF [8]: completely inhibited

Source: patent US7148248B2, “Method of treating or inhibiting the development of brain inflammation and sepsis” (priority 2002, dated 2006)
